Values after ≈ are worked out from the molar mass of the structure shown. Where two headings read alike, the source gives them in different places.
Key:
[1] = cited from earlier work; for Observed AUC(0-inf) Fasted / Observed AUC(0-inf) Fed / Observed Cmax Fed / Observed Cmax Fasted / Observed AUC Ratios (Fed/Fasted) / Observed Cmax Ratios (Fed/Fasted): ref published clinical data (Table I)
[2] = Solubility measurement in biorelevant media (FaSSIF-V2, FeSSIF-V2); conditions: 37 °C, thermodynamic from solid
Description: The solubility of the drug substances was determined in biorelevant media as well as in aqueous buffers at different pH. Fasted state simulated gastric fluid (FaSSGF) ([37]), fasted state simulated intestinal fluid (FaSSIF-V2) ([38]), and fed state simulated intestinal fluid (FeSSIF-V2) ([39]) were prepared according to the instructions provided by Biorelevant (Biorelevant.com Ltd., London, UK). […] For neutral compounds, solubility was determined at pH 2, pH 4, and pH 7.
For freely soluble compounds, the extent of solubilization was measured only up to 10 mg/mL.

[3] = PBPK food effect modeling (Simcyp V17.1 and/or GastroPlus V9.5; Model 1 / Model 2); parameters: species or system human
Caco-2 = conditions: not generated within this working group; ref Table I; cited from earlier work
[4] = Effective human jejunum permeability (Peff,man) used in the PBPK model; assay type: in vitro ADME; conditions: human, 1 h
Description: Permeation rates of the compounds, including reference compounds, were measured in the apical-to-basolateral (AB) direction. The donor and receiver wells were sampled immediately after application of the compound to the donor well to determine baseline concentrations, and again after 1 h. Quantification was done using high-performance liquid chromatography combined with mass spectrometry (HPLC-MS/MS) analysis and monolayer integrity was verified by analyzing the receiver samples for LuY fluorescence in a plate reader.

[5] = not generated within this working group; ref Table I; cited from earlier work
[6] = parameters: method as in Table I reference column; conditions: not generated within this working group; ref Table I; cited from earlier work
[7] = FaSSIF-V2 (fasted state simulated intestinal fluid), FaSSIF solubility
[8] = FeSSIF-V2 (fed state simulated intestinal fluid), FeSSIF solubility
[9] = clinically observed PK change (AUC, Cmax) fed vs fasted, compiled by literature search
[10] = direction, AUC and/or Cmax ratio fed to fasted, BE criteria 0.8–1.25, ref drug label

| pKa (pKa; pKa (b, basic)) | solubility [2, 7] [µg/mL] | solubility [2, 8] [µg/mL] | AUC Ratio of Ratios (Sim'd / Obs'd) ([3]; Model 1) | Cmax Ratio of Ratios (Sim'd / Obs'd) ([3]; Model 1) | AUC Ratio of Ratios (Sim'd / Obs'd) ([3]; Model 2) | Effective permeability [4] [cm/s] | Compound | Observed AUC(0-inf) Fasted ([1]; Model 1) [ng·h/mL] | Observed AUC(0-inf) Fed ([1]; Model 1) [ng·h/mL] | Observed Cmax Fed ([1]; Model 1) [ng/mL] | Observed AUC(0-inf) Fasted ([1]; Model 2) [ng·h/mL] | Observed AUC(0-inf) Fed ([1]; Model 2) [ng·h/mL] | Observed Cmax Fed ([1]; Model 2) [ng/mL] | Observed Cmax Fasted ([1]; Model 1) [ng/mL] | Observed AUC Ratios (Fed/Fasted) ([1]; Model 1) | Observed Cmax Ratios (Fed/Fasted) ([1]; Model 1) | Observed Cmax Fasted ([1]; Model 2) [ng/mL] | Food Effect [1, 9] | Food Effect [1, 10] | Solubility at pH 6.5 [5] | further results |
| --- | --- | --- | --- | --- | --- | --- | --- | --- | --- | --- | --- | --- | --- | --- | --- | --- | --- | --- | --- | --- | --- |
| 7.05 | 23 (≈ 47.7 µM) | 77 (≈ 160 µM) |  |  |  |  | CCc1cc2c(cc1N1CCC(N3CCOCC3)CC1)C(C)(C)c1[nH]c3cc(C#N)ccc3c1C2=O [Alectinib] | 1790 | 5230 | 257 | 1790 | 5230 | 257 |  |  |  |  |  |  |  |  |
| 6.9 | 22000 (≈ 87200 µM) | 21500 (≈ 85200 µM) | 1.14 | 0.87 | 1.19 |  | CN/C(=N/CCSCc1nc[nH]c1C)NC#N [Cimetidine] | 4880 | 4150 | 810 | 5350 | 4580 | 800 | 900 | 0.85 | 0.90 | 890 | None (none if no significant change in AUC and Cmax with food) |  |  | Cmax Ratio of Ratios (Sim'd / Obs'd) ([3]; Model 2): 1.10; Apparent permeability (Caco-2) (Caco-2): 5.4 (Caco-2)^^ × 10^−6 cm/s; Observed AUC Ratios (Fed/Fasted) ([1]; Model 2): 0.86; Observed Cmax Ratios (Fed/Fasted) ([1]; Model 2): 0.90 |
|  | 132 (≈ 176 µM) | 1660 (≈ 2210 µM) |  |  |  | 3e-05 | CC[C@H]1OC(=O)[C@H](C)[C@@H](O[C@H]2C[C@@](C)(OC)[C@@H](O)[C@H](C)O2)[C@H](C)[C@@H](O[C@@H]2O[C@H](C)C[C@H](N(C)C)[C@H]2O)[C@](C)(OC)C[C@@H](C)C(=O)[C@H](C)[C@@H](O)[C@]1(C)O [Clarithromycin] | 12600 | 15700 | 2510 | 12600 | 15700 | 2510 | 1650 |  |  | 1650 | Positive (positive if the ratio of fed > fasted) |  |  |  |
| 8.1 | 459 (≈ 1040 µM) |  | 1.51 | 1.70 |  |  | Cc1c(F)cccc1NC(=O)Nc1ccc(Cl)c(S(=O)(=O)[C@H]2CCCNC2)c1O [Danirixin] | 10400 | 6760 | 1300 |  |  |  | 3020 | 0.65 | 0.43 |  | Negative (negative if ratio fasted > fed) | Negative (negative if ratio fasted > fed) |  | pKa (pKa; pKa (a, acidic)): 4.8 |
| 4.5 |  |  | 1.05 | 0.97 | 1.06 | 0.00048 | Cc1ccc(-c2ncc(Cl)cc2-c2ccc(S(C)(=O)=O)cc2)cn1 [Etoricoxib] | 44400 | 42200 | 1890 | 44400 | 42200 | 1890 | 2890 | 0.95 | 0.65 | 2890 | Negative (negative if ratio fasted > fed) | Negative (negative if ratio fasted > fed) | 67^^ μg/ml | Cmax Ratio of Ratios (Sim'd / Obs'd) ([3]; Model 2): 1.25; FaSSIF solubility [6]: 67^^ μg/ml; FeSSIF solubility [6]: 95^^ μg/ml; Apparent permeability (Caco-2) (Caco-2): 52.3 (Caco-2)^^ × 10^−6 cm/s; Observed AUC Ratios (Fed/Fasted) ([1]; Model 2): 0.95; Observed Cmax Ratios (Fed/Fasted) ([1]; Model 2): 0.65; food effect (FE) direction ([1]; ref drug label): negative FE |
|  |  |  | 0.95 | 0.92 | 0.99 | 0.0004 | O=C1NC(=O)C(c2ccccc2)(c2ccccc2)N1 [Phenytoin] | 104000 | 127000 | 6950 | 104000 | 127000 | 6950 | 4920 | 1.22 | 1.41 | 4920 | Positive (positive if the ratio of fed > fasted) | Positive (positive if the ratio of fed > fasted) | 31^^ μg/ml | Cmax Ratio of Ratios (Sim'd / Obs'd) ([3]; Model 2): 1.00; pKa (pKa; pKa (a, acidic)): 8.06; FaSSIF solubility [6]: 39.6^^ μg/ml; FeSSIF solubility [6]: 49.5^^ μg/ml; Observed AUC Ratios (Fed/Fasted) ([1]; Model 2): 1.22; Observed Cmax Ratios (Fed/Fasted) ([1]; Model 2): 1.41; food effect (FE) direction ([1]; ref drug label): positive FE |
|  |  |  | 0.92 | 1.23 |  |  | CC(C)(CO)c1cc2cc(NC(=O)C3(c4ccc5c(c4)OC(F)(F)O5)CC3)c(F)cc2n1C[C@@H](O)CO [Tezacaftor] | 3970 | 4360 | 1890 |  |  |  | 2340 | 1.10 | 0.81 |  | None (none if no significant change in AUC and Cmax with food) | None (none if no significant change in AUC and Cmax with food) | 110^^ μg/ml | pKa (ionisation state in words) (pKa): Neutral; FaSSIF solubility [6]: 119^^ μg/ml; FeSSIF solubility [6]: 4783^^ μg/ml; Apparent permeability (Caco-2) (Caco-2): 4.2 (Caco-2)^^ × 10^−6 cm/s |
|  |  |  |  |  |  |  | CC(C)NC[C@@H](O)c1ccc(NS(C)(=O)=O)cc1 [d-Sotalol] | 15500 | 12600 |  |  |  |  | 1200 |  |  |  | None (none if no significant change in AUC and Cmax with food) |  | 15,800^^ μg/ml | pKa (b, basic) (pKa): 9.72; pKa (pKa; pKa (a, acidic)): 8.28 |

| Compound | pKa (pKa; pKa (b, basic)) | solubility [2, 7] [µg/mL] | solubility [2, 8] [µg/mL] | AUC Ratio of Ratios (Sim'd / Obs'd) ([3]; Model 1) | Cmax Ratio of Ratios (Sim'd / Obs'd) ([3]; Model 1) | AUC Ratio of Ratios (Sim'd / Obs'd) ([3]; Model 2) | Effective permeability [4] [cm/s] | Observed AUC(0-inf) Fasted ([1]; Model 1) [ng·h/mL] | Observed AUC(0-inf) Fed ([1]; Model 1) [ng·h/mL] | Observed Cmax Fed ([1]; Model 1) [ng/mL] | Observed AUC(0-inf) Fasted ([1]; Model 2) [ng·h/mL] | Observed AUC(0-inf) Fed ([1]; Model 2) [ng·h/mL] | Observed Cmax Fed ([1]; Model 2) [ng/mL] | Observed Cmax Fasted ([1]; Model 1) [ng/mL] | Observed AUC Ratios (Fed/Fasted) ([1]; Model 1) | Observed Cmax Ratios (Fed/Fasted) ([1]; Model 1) | Observed Cmax Fasted ([1]; Model 2) [ng/mL] | Food Effect [1, 9] | Food Effect [1, 10] | Solubility at pH 6.5 [5] | further results |
| --- | --- | --- | --- | --- | --- | --- | --- | --- | --- | --- | --- | --- | --- | --- | --- | --- | --- | --- | --- | --- | --- |
| Cc1ccc(NC(=O)c2ccc(CN3CCN(C)CC3)cc2)cc1Nc1nccc(-c2cccnc2)n1 [Imatinib] | 3.73 |  |  |  |  |  | 0.00011 |  |  |  |  |  |  |  |  |  |  |  | None (none if no significant change in AUC and Cmax with food) |  | pKa (b, basic) (pKa): 8.07 |
| CCC(C)n1ncn(-c2ccc(N3CCN(c4ccc(OCC5COC(Cn6cncn6)(c6ccc(Cl)cc6Cl)O5)cc4)CC3)cc2)c1=O (stereo not shown) [Itraconazole] | 4.28 | 1120 (≈ 1590 µM) | 3620 (≈ 5130 µM) | 0.82 | 1.03 | 1.00 | 0.00099 | 1880 | 3120 | 239 | 1880 | 3120 | 239 | 140 | 1.66 | 1.71 | 140 | Positive (positive if the ratio of fed > fasted) | Positive (positive if the ratio of fed > fasted) |  | Cmax Ratio of Ratios (Sim'd / Obs'd) ([3]; Model 2): 1.02; Observed AUC Ratios (Fed/Fasted) ([1]; Model 2): 1.66; Observed Cmax Ratios (Fed/Fasted) ([1]; Model 2): 1.71 |
| CCOC(=O)C1=C[C@@H](OC(CC)CC)[C@H](NC(C)=O)[C@@H](N)C1 [Oseltamivir] | 7.7 |  |  | 1.09 | 1.34 |  |  | 6220 | 6070 | 441 |  |  |  | 551 | 0.98 | 0.80 |  |  | None (none if no significant change in AUC and Cmax with food) | 25,000^^ μg/ml |  |

Reference: paper PMC7520419 (The AAPS Journal, 2020)
